Results published in paper PMC7411736, “Effects of Sesamin, the Major Furofuran Lignan of Sesame Oil, on the Amplitude and Gating of Voltage-Gated Na^+ and K^+ Currents” (Molecules, 2020).

Key:
Format in all cases: cell-based, rat
[1] = tested on: hyperpolarization-activated cation currents (Ih) in GH3 cells; test: Whole-cell patch-clamp of hyperpolarization-activated cation current (−40 to −110 mV); details: 10 μM; at −110 mV; control 388 ± 24 pA; n = 9
Procedure: In the following experiments, we further studied whether the presence of SSM could perturb another type of inwardly directed current, i.e., Ih. Cells were exposed to Ca^2+-free Tyrode’s solution containing 1 μM TTX and the pipette was filled with K^+-containing solution. As the hyperpolarizing command pulse from −40 to −110 mV with a duration of 2 sec was delivered, Ih with a slowly activating property was robustly evoked, as observed previously. […] Cilobradine has recently been reported to decrease Ih amplitude, as well as to alter activation kinetics present in different types of excitable cells.
The bath solution (i.e., a HEPES-buffered normal Tyrode’s solution) utilized in the present study was composed of 136 mM NaCl, 5.4 mM KCl, 1.8 mM CaCl2, 0.53 mM MgCl2, 5.5 mM glucose, and 5.5 mM HEPES titrated with NaOH to pH 7.4. To measure macroscopic IK(DR) and Ih, we filled patch pipettes by using a solution containing 130 mM K-aspartate, 20 mM KCl, 1 mM KH2PO4, 1 mM MgCl2, 3 mM Na2ATP, 0.1 mM Na2GTP, 0.1 mM EGTA, and 5 mM HEPES adjusted with KOH to pH 7.2. To record INa and INa(R), we substituted K^+ ions in the pipette solution inside the electrode for equmolar Cs^+ ions and the pH value in the solution was adjusted to 7.2 with CsOH. […]
(§1) On the day of each experiment, cells were dispersed with a 1% trypsin/EDTA solution and a few drops of cell suspension were rapidly placed in a custom-built recording chamber mounted on the stage of an inverted DM-IL microscope (Leica; Major Instruments, Kaohsiung, Taiwan). […] We measured ion currents in the whole-cell model of a standard patch-clamp technique with dynamic adaptive suctioning (i.e., decremental change of suction pressure in response to a progressive increase in the electrode resistance), with the aid of an RK-400 (Bio-Logic, Claix, France) or an Axopatch-200B (Molecular Devices, Sunnyvale, CA) patch amplifier. […] During the measurements, the recorded area on the vibration-free table was shielded by using a Faraday cage (Scitech, Seoul, South Korea). […]

[2] = tested on: resurgent INa (INa(R)) in GH3 cells; test: Whole-cell patch-clamp of resurgent INa (step to +20 mV, repolarization to −50 to 0 mV); details: 1 μM; at −30 mV; control 46 ± 6 pA; n = 8
From the text: We next wanted to determine whether SSM exerts any effects on INa(R) identified from these cells. The whole-cell experiments on INa(R) were undertaken when each cell was voltage clamped at −80 mV and a brief depolarizing step to +20 mV was delivered to activate transient INa. The INa(R) upon repolarization to various potentials ranging between −50 and 0 mV was thereafter measured at the end of voltage pulses (Figure 4). The effect of SSM on INa(R) was examined at various membrane potentials, and the I-V relationship of INa(R) with or without the addition of SSM was constructed. […]
as §1

[3] = tested on: M-type K+ currents (IK(M)) in GH3 cells; test: Whole-cell patch-clamp of M-type K+ current (depolarization from −50 to −10 mV, 1 sec); details: amplitude at end of pulse, read-out: IC50 for decrease of IK
From the text: The following experiments were further undertaken to determine whether the addition of SSM could exert any perturbations on the amplitude or gating of IK(M) in these cells. Cells were bathed in high-K^+, Ca^2+-free solution, and the recording pipette was then filled with K^+-enriched solution. Figure 5 illustrates that the presence of SSM can result in a concentration-dependent depression in the amplitude of IK(M) during step depolarization.
The bath solution (i.e., a HEPES-buffered normal Tyrode’s solution) utilized in the present study was composed of 136 mM NaCl, 5.4 mM KCl, 1.8 mM CaCl2, 0.53 mM MgCl2, 5.5 mM glucose, and 5.5 mM HEPES titrated with NaOH to pH 7.4. […]
On the day of each experiment, cells were dispersed with a 1% trypsin/EDTA solution and a few drops of cell suspension were rapidly placed in a custom-built recording chamber mounted on the stage of an inverted DM-IL microscope (Leica; Major Instruments, Kaohsiung, Taiwan). […] We measured ion currents in the whole-cell model of a standard patch-clamp technique with dynamic adaptive suctioning (i.e., decremental change of suction pressure in response to a progressive increase in the electrode resistance), with the aid of an RK-400 (Bio-Logic, Claix, France) or an Axopatch-200B (Molecular Devices, Sunnyvale, CA) patch amplifier. […]

c1cc2c(cc1[C@H]1OC[C@H]3[C@@H]1CO[C@@H]3c1ccc3c(c1)OCO3)OCO2 [SSM, [1S-(1α,3aα,4α,6aα)] -5,5’- (tetrahydro-1H,3H-furo [3–4-c]furan-1,4-diyl)bis-1,3-benzodioxole] was tested, and the “Ih amplitude at end of hyperpolarizing step” value [1] was 386 ± 26 pA, the “INa(R) amplitude” value [2] was 22 ± 5 pA and the IC50 [3] was 4.8 µM.
